How the values were obtained:
GABA autoreceptor [1] = assay: Procedure 1: inhibition of potassium-evoked [3H]-GABA release from rat cerebral cortex slices; assay type: cell-based; conditions: for GABA autoreceptor pD2 values: inhibition of 25 mM potassium-evoked [3H]-GABA release, rat cortex slices in vitro
Description: (§1) The following test procedures were used to measure activity at (a) GABA autoreceptors and GABAB receptors by inhibition of potassium-evoked GABA and noradrenalin release from rat cortex in vitro (Procedure 1); and (b) GABAA receptors by enhancement of [3H]-flunitrazepam binding in rat cortex in vitro (Procedure 2):
(§2) Slices (0.25 x 0.25 x 2.0 mm) of rat cerebral cortex are prepared using a McIlwain tissue chopper. The slices are incubated in Krebs-Henseleit solution containing [³H]-GABA (10⁻⁷M) and [¹⁴C]-noradrenaline (10⁻⁷M) in the presence of amino-oxyacetic acid (AOAA) (10⁻⁵M), pargyline (10⁻⁶M) and ascorbic acid (10⁻⁴M), for 20 minutes at 37°C, rinsed with 5 ml aliquots of Krebs-Henseleit solution and transferred to 10 superfusion chambers (volume 300»l). The slices are continuously superfused with Krebs-Henseleit solution (0.4 ml min⁻¹) containing AOAA (10⁻⁵M) and fractions of the superfusate collected every 4 minutes. Transmitter release is induced by 4 minute exposure to a Krebs-Henseleit solution containing 25 mM potassium (with concomitant reduction in sodium to maintain osmolarity) after 68 (S₁) and 92 (S₂) minutes of superfusion. The compound under study is added to the superfusing medium 20 minutes prior to the second potassium stimulation. The residual radioactivity in the slices at the end of the experiment together with that in the superfusate fractions is measured by liquid scintillation counting using a dual label programme for tritium and carbon-14. Calculations: The amount of radioactivity (either tritium or carbon-14) in each fraction is expressed as a percentage of the respective total radioactivity in the tissue at the start of the respective collection period. The amount of radioactivity released above basal by the increased potassium is calculated and the ratio S2/S1 obtained. The S2/S1 ratio from drug-treated slices is expressed as a percentage of the control S2/S1 ratio.

GABAB receptors = biological target: T1, GABAB receptors (Rattus norvegicus, UniProt Q9Z0U4); assay: Procedure 1: inhibition of potassium-evoked [14C]-noradrenaline release from rat cerebral cortex slices; assay type: cell-based; conditions: for inhibition at 10 µM: 10^-5M, potassium-evoked noradrenaline release, rat cortex slices, failure to inhibit indicates no GABAB agonist activity
T1 construct: Slices (0.25 x 0.25 x 2.0 mm) of rat cerebral cortex; from tissue; host or cells: rat cerebral cortex slices
Description: as §1
as §2, with “ratio. For compounds achieving inhibition of 30% or more pD₂ values are calculated from plots of inhibition of release versus concentration of drug.” for “ratio.”

GABAA receptors = assay: Procedure 2: enhancement of [3H]-flunitrazepam binding in rat cortex membranes; conditions: for Enhancement of [3H]-flunitrazepam binding: 20nM [3H]-flunitrazepam, rat cortex membranes, 30 minutes at 37°C
Description: as §1
Cortices from six or more rats are excised and homogenised in 50 volumes (volume/weight) 50mM Tris buffer (pH 7.4 at 37°C) using a Polytron homogeniser on speed 5 for 30 seconds. Tissue is kept at O°C throughout the procedure. The homogenate is centrifuged at 40,000 x g for 15 minutes and the pellet resuspended (Polytron 5, 10 sec.) in 50 volumes (original weight) of Tris buffer. Centrifugation and resuspension is repeated followed by incubation at 37°C for 10 minutes. The homogenate is centrifuged (40,000 x g, 15 min), resuspended in 10 volumes (original weight) Tris and stored below -20°C for more than 24 hours.
On the day of the experiment, membranes are thawed at 37°C and made up to 20 volumes (original weight) with Tris Krebs (20mM, see below). The membranes are homogenised (Polytron 5, 30 sec), incubated at 37°C for 15 minutes and centrifuged at 20,000 x g for 10 minutes. This wash and resuspension is repeated two more times with the final pellet resuspended in 100 volumes (original weight) Tris Krebs ready for use.
The test compound (50»l) and 20nM (final concentration) [³H]-flunitrazepam (50»l) are dispensed in triplicate. The reaction is started by the addition of 900»l of membrane preparation. After a 30 minute incubation at 37°C the reaction is stopped by filtration through Whatman GF/B filters under reduced pressure using a Brandell Cell Harvester, with two 7.5 ml filter washings. The radioactivity retained on the filters is measured by liquid scintillation counting. Tris Krebs composition: NaCl-136mM, KCl-5mM, MgSO₄-2mM, KH₂PO₄-2mM, CaCl₂-2mM, Tris buffer (pH 7.4 at 37°C)-20mM, ascorbic acid-lmM, disodium ethylenediamine tetraacetic acid-lmM.
Calculations: Results are calculated as follows: [formula]

GABA autoreceptor [2] = assay: Procedure 3: effect on a GABA synapse in vivo, caudate-evoked synaptic inhibition of nigral neurones, iontophoretic ejection; design: species or system rat; conditions: anaesthetized male albino rats; ejected iontophoretically in the vicinity of nigral neurones; action reversible
Description: The compounds were also tested for their effect on a GABA synapse in vivo in the following procedure:
(§3) Experiments were performed on male albino rats (240-280g) lightly anaesthetized with urethane (1.2-1.4 g/kg i.p.) or Halothane (0.7-1.0% in 0₂). The animal's temperature was maintained between 36-38°C via a thermostatically controlled heating blanket.
(§4) The caudate nucleus and substantia nigra were approached dorsally after exposing the overlying cortex. Pulsations of the brain and cerebral oedema were minimised by allowing cerebral spinal fluid to leak from a cisternal puncture. The exposed cortex was bathed in warm liquid paraffin throughout the experiment. A coaxial bipolar stimulating electrode (tip separation 0.25mm) was positioned stereotaxically in the caudate nucleus such that the tip of the electrode corresponded to the area delineated by the co-ordinates L 2.5; A 8.5-95; D 5. (Paxinos and Watson 1986). […]
(§5) Extracellular recordings were obtained from single neurones in the ipsilateral substantia nigra via either the centre barrel (3.5M NaCl) of a multibarrelled microelectrode or a single barrelled electrode (3.5M NaCl), attached to but protruding 10-20 » beyond, a multibarrelled electrode. […] Effects of agonist drugs on the GABA autoreceptor could be measured as an attenuation of the synaptic inhibition evoked by stimulation of the caudate. […]

[3] = system: postsynaptic GABAA receptors; assay: Procedure 3: drug ejected onto nigral neurones in vivo, test of postsynaptic GABAA receptor effect; design: species or system rat; conditions: anaesthetized male albino rats; ejected iontophoretically in the vicinity of nigral neurones
Description: as §3, §4, §5

T1 sequence (Q9Z0U4 20-960): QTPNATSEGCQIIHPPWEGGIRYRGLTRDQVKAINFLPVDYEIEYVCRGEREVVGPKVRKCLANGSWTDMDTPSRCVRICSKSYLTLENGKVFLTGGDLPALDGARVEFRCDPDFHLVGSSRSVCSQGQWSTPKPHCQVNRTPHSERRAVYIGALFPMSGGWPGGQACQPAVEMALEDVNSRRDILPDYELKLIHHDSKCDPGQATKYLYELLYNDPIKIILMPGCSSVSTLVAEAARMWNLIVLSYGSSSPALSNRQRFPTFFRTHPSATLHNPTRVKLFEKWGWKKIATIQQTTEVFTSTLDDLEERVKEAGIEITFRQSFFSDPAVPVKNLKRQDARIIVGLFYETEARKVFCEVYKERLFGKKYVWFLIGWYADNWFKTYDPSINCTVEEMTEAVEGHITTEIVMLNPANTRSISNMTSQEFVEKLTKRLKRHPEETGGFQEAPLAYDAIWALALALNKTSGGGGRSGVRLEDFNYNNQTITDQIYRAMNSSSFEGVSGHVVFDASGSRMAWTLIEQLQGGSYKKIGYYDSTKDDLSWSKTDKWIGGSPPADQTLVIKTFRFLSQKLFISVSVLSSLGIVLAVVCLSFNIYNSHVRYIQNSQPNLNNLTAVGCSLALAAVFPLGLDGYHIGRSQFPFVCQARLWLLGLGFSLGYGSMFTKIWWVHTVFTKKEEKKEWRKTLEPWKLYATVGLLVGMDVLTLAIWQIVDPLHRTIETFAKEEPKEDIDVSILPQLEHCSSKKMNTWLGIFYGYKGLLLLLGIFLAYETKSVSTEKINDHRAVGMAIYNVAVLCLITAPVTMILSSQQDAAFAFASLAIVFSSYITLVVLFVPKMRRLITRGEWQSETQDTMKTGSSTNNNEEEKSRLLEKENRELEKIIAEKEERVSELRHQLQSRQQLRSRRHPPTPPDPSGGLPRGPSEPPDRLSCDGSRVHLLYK
T1 sequence (O88871 41-940 partner): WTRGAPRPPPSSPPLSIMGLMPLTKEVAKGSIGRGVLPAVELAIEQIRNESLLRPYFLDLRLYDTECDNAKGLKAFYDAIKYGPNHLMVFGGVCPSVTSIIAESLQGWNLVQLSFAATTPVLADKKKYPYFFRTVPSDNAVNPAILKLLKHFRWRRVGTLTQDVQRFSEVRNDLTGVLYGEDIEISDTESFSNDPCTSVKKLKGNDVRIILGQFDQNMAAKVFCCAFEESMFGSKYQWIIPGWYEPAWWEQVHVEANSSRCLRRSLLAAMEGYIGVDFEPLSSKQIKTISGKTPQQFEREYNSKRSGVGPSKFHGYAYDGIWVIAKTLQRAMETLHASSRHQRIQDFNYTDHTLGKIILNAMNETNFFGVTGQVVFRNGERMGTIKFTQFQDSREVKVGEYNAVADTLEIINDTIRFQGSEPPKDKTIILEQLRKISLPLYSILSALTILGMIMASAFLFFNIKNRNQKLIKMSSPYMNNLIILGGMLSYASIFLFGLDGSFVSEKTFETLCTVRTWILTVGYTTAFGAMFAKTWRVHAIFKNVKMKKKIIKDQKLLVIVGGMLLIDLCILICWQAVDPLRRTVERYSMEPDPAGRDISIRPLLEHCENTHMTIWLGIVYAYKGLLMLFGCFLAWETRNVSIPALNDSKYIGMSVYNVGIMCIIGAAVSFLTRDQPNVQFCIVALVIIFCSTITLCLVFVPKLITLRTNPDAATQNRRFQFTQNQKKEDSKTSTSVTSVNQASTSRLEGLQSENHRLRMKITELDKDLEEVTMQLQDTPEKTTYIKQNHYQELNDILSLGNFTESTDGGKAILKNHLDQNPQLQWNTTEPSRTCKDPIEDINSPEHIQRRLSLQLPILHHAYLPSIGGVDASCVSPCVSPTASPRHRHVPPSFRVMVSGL

## O=C(O)CCCN(Cc1ccc(Cl)cc1)Cc1ccc(Cl)cc1 [Example 2, 4-[N,N-Bis-(4-Chlorobenzyl)amino]butyric acid]
GABA autoreceptor [1]
  GABA autoreceptor pD2 values: 7.0
GABAB receptors
  inhibition at 10 µM: 0%
GABAA receptors
  Enhancement of [3H]-flunitrazepam binding: 0

## NC(=O)CCCN(Cc1ccccc1)Cc1ccccc1 [Example 4, 4-(N,N-Dibenzylamino)butyramide]
GABA autoreceptor [1]
  GABA autoreceptor pD2 values: 7.0
GABAB receptors
  inhibition at 10 µM: > 20%
GABAA receptors
  Enhancement of [3H]-flunitrazepam binding: 0

## NC(=O)CCC/N=C(\c1ccc(Cl)cc1)c1cc(F)ccc1O [Progabide, reference compound]
GABA autoreceptor [1]; in vitro
  activity at the GABA autoreceptor: active

## COc1ccc(CN(CCCC(N)=O)Cc2ccc(OC)cc2)cc1 [Example 12, 4-[N,N-Bis-(4-Methoxybenzyl)amino]butyramide]
GABA autoreceptor [1]
  GABA autoreceptor pD2 values: 6.0
GABAB receptors
  inhibition at 10 µM: 0%
GABAA receptors
  Enhancement of [3H]-flunitrazepam binding: 0

## NC(=O)CCCN(Cc1ccc(Cl)cc1)Cc1ccc(Cl)cc1 [Example 3, 4-[N,N-Bis-(4-chlorobenzyl)amino]butyramide]
GABA autoreceptor [1]
  GABA autoreceptor pD2 values: 6.6
GABAB receptors
  inhibition at 10 µM: 0%
GABAA receptors
  Enhancement of [3H]-flunitrazepam binding: 0

## O=C(O)CCCN(Cc1ccccc1)Cc1ccccc1 [Example 5, 4-(N,N-Dibenzylamino)butyric acid]
GABA autoreceptor [1]
  GABA autoreceptor pD2 values: 7.1
GABAB receptors
  inhibition at 10 µM: 20%
GABAA receptors
  Enhancement of [3H]-flunitrazepam binding: 0
GABA autoreceptor [2]
  synaptically-evoked, GABA-mediated inhibition in the substantia nigra: almost abolished
[3]
  effect on postsynaptic GABAA receptors: without affecting

## CCCC/N=C(/c1cc(Cl)ccc1O)c1ccccc1Cl [fengabine, reference compound]
GABA autoreceptor [1]
  GABA autoreceptor pD2 values: 8.0
GABAB receptors; in vitro
  activity at GABAB sites in vitro: little or no activity
GABAA receptors; in vitro
  activity at GABAA sites in vitro: little or no activity

## CN(CCCC(N)=O)Cc1ccc(Cl)cc1 [Example 24, 4-[(N-(p-Chlorobenzyl)-N-methyl)amino]butyramide]
GABA autoreceptor [1]
  GABA autoreceptor pD2 values: 7.5
GABAB receptors
  inhibition at 10 µM: 0%
GABAA receptors
  Enhancement of [3H]-flunitrazepam binding: 0

## O=C(O)CCCN(Cc1ccc(Cl)c(Cl)c1)Cc1ccc(Cl)c(Cl)c1 [Example 10, 4-[N,N-Bis-(3,4-dichlorobenzyl)amino]butyric acid]
GABA autoreceptor [1]
  GABA autoreceptor pD2 values: 7.5
GABAB receptors
  inhibition at 10 µM: 0%
GABAA receptors
  Enhancement of [3H]-flunitrazepam binding: 0

## Cc1ccc(CN(CCCC(=O)O)Cc2ccc(C)cc2)cc1 [Example 8, 4-[N,N-Bis-(4-methylbenzyl)amino]butyric acid]
GABA autoreceptor [1]
  GABA autoreceptor pD2 values: 7.4
GABAB receptors
  inhibition at 10 µM: 10%
GABAA receptors
  Enhancement of [3H]-flunitrazepam binding: 0

— patent EP0345068B1, “Agonist of gamma-aminobutyric acid” (JOHN WYETH & BROTHER LIMITED, priority 1988, dated 1989)
